Results reported in ChEMBL document CHEMBL1201862, “PubChem BioAssay data set” (2004).
Activity calls are given as the source filed them.

Experiments:
Format in all cases: functional
[1] = molecular target: Glycogen synthase kinase-3 beta (Homo sapiens, UniProt P49841); test: inhibition of human GSK3B activity – biochemical, microfluidics, dry powder samples, set 2, dose response (AID 623989)
[2] = molecular target: Glycogen synthase kinase-3 alpha (Homo sapiens, UniProt P49840); test: GSK3A enzyme blockers, homolog specificity check – biochemical, microfluidics, dry powder samples, set 2, selectivity assay for GSK3beta inhibitor project, dose response (AID 623978)
[3] = molecular target: cGMP-dependent protein kinase 1 (Homo sapiens, UniProt Q13976);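 also: value from a kinome panel screen with PRKG1 as the panel member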
[4] = molecular target: Protein kinase C delta type (Homo sapiens, UniProt Q05655)
[5] = molecular target: Ribosomal protein S6 kinase beta-1 (Homo sapiens, UniProt P23443);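 also: measured as one member of a kinome-wide profiling panel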
[6] = molecular target: Calcium/calmodulin-dependent protein kinase type II subunit gamma (Homo sapiens, UniProt Q13555)
[7] = molecular target: Serine/threonine-protein kinase Chk2 (Homo sapiens, UniProt O96017);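 also: CHEK2 entry within a kinome-wide screening panel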
[8] = molecular target: Mitogen-activated protein kinase 8 (Homo sapiens, UniProt P45983);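 also: value comes from one member of a kinome-wide kinase profiling panel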
[9] = molecular target: Serine/threonine-protein kinase pim-1 (Homo sapiens, UniProt P11309)
[10] = molecular target: Casein kinase I isoform alpha (Homo sapiens, UniProt P48729)
[11] = molecular target: Proto-oncogene tyrosine-protein kinase ROS (Homo sapiens, UniProt P08922);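 also: ROS1 tested as one member of a kinome-wide kinase panel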
[12] = molecular target: Homeodomain-interacting protein kinase 2 (Homo sapiens, UniProt Q9H2X6);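 also: measured within a kinome-wide kinase profiling panel, HIPK2 being one panel member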
[13] = molecular target: Protein-tyrosine kinase 2-beta (Homo sapiens, UniProt Q14289)
[14] = molecular target: Tyrosine-protein kinase ABL1 (Homo sapiens, UniProt P00519)
[15] = molecular target: Protein kinase C iota type (Homo sapiens, UniProt P41743);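 also: measured within a kinome-wide kinase panel, PRKCI as panel member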
[16] = molecular target: Protein-tyrosine kinase 6 (Homo sapiens, UniProt Q13882)
[17] = molecular target: Fibroblast growth factor receptor 3 (Homo sapiens, UniProt P22607)
[18] = molecular target: Receptor tyrosine-protein kinase erbB-4 (Homo sapiens, UniProt Q15303);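 also: ERBB4 member of a kinome-wide kinase profiling panel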
[19] = molecular target: Mitogen-activated protein kinase 12 (Homo sapiens, UniProt P53778);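 also: measured as one member of a kinome-wide kinase profiling panel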
[20] = Vero cell cytotoxicity, dose response, cytotoxicity control for M. tuberculosis growth inhibitor project, Vero cells, purified and synthesized compounds, set 5 (AID 504909); details: Mycobacterium tuberculosis
[21] = A Cell Based Secondary Assay to Explore Cytotoxicity in THP-1 Cells of Compounds that Modulate Mycobacterium tuberculosis in Media Containing Glycerol versus Media without Glycerol (2).
[22] = Vero cell cytotoxicity, cytotoxicity control for M. tuberculosis inhibitor project, purified and synthesized samples, set 3 (AID 504684)
[23] = THP-1 cell cytotoxicity, cytotoxicity control, set 4 (AID 504911); details: Mycobacterium tuberculosis
[24] = A Cell Based Secondary Assay to Explore Cytotoxicity in HepG2 Cells of Compounds that Modulate Mycobacterium tuberculosis in Media Containing Glycerol versus Media without Glycerol (2).
[25] = HepG2 cell cytotoxicity, dose response, cytotoxicity control, set 3 (AID 504853); details: Mycobacterium tuberculosis
[26] = THP-1 cell cytotoxicity, dose response, cytotoxicity control, set 3 (AID 504852); details: Mycobacterium tuberculosis
[27] = Vero cell cytotoxicity, dose response, cytotoxicity control for M. tuberculosis growth inhibitor project, Vero cells, purified and synthesized compounds, set 4 (AID 504854); details: Mycobacterium tuberculosis

Serine/threonine-protein kinase pim-1, sequence (P11309 whole entry, canonical isoform): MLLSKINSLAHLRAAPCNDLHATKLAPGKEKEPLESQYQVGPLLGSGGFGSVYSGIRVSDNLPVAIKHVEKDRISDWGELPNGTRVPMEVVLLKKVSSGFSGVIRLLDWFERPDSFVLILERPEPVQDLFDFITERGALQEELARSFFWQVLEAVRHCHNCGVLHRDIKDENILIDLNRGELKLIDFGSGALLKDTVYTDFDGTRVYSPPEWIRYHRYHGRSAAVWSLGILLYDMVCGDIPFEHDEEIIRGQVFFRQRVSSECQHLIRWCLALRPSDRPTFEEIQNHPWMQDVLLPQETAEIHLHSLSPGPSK
Calcium/calmodulin-dependent protein kinase type II subunit gamma, sequence (Q13555 whole entry): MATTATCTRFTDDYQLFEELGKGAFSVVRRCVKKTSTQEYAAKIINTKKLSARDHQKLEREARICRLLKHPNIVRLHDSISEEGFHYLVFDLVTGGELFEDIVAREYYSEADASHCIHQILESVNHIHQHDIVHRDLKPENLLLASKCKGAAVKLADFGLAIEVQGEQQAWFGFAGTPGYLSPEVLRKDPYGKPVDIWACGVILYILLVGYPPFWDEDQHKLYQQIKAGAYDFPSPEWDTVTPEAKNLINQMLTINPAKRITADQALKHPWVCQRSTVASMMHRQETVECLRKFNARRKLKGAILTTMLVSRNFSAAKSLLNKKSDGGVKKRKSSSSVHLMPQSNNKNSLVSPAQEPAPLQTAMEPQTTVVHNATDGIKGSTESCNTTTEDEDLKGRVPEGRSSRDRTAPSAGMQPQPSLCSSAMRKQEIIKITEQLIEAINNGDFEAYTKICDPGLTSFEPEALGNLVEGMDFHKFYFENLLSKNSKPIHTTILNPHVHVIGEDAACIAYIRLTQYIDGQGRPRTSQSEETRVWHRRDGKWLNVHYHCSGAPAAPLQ
Protein kinase C delta type, sequence (Q05655 whole entry): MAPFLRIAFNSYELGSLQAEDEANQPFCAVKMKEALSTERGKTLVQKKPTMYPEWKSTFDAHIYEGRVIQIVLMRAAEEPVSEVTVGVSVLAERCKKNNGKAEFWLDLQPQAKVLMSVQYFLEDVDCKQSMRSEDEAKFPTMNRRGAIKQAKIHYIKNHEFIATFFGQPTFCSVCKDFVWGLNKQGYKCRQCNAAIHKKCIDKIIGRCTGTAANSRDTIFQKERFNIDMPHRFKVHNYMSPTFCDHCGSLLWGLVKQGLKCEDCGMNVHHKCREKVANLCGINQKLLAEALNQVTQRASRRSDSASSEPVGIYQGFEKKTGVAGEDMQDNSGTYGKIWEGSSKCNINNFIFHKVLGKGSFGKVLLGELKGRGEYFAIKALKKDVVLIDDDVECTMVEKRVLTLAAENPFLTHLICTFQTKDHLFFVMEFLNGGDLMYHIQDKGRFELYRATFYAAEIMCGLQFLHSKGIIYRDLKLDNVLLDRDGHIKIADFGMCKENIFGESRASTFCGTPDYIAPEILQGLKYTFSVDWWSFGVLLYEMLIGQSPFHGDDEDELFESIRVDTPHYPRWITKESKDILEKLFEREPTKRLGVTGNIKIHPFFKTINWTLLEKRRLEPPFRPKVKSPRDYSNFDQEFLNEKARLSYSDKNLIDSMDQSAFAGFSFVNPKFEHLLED
Receptor tyrosine-protein kinase erbB-4, sequence (Q15303 whole entry): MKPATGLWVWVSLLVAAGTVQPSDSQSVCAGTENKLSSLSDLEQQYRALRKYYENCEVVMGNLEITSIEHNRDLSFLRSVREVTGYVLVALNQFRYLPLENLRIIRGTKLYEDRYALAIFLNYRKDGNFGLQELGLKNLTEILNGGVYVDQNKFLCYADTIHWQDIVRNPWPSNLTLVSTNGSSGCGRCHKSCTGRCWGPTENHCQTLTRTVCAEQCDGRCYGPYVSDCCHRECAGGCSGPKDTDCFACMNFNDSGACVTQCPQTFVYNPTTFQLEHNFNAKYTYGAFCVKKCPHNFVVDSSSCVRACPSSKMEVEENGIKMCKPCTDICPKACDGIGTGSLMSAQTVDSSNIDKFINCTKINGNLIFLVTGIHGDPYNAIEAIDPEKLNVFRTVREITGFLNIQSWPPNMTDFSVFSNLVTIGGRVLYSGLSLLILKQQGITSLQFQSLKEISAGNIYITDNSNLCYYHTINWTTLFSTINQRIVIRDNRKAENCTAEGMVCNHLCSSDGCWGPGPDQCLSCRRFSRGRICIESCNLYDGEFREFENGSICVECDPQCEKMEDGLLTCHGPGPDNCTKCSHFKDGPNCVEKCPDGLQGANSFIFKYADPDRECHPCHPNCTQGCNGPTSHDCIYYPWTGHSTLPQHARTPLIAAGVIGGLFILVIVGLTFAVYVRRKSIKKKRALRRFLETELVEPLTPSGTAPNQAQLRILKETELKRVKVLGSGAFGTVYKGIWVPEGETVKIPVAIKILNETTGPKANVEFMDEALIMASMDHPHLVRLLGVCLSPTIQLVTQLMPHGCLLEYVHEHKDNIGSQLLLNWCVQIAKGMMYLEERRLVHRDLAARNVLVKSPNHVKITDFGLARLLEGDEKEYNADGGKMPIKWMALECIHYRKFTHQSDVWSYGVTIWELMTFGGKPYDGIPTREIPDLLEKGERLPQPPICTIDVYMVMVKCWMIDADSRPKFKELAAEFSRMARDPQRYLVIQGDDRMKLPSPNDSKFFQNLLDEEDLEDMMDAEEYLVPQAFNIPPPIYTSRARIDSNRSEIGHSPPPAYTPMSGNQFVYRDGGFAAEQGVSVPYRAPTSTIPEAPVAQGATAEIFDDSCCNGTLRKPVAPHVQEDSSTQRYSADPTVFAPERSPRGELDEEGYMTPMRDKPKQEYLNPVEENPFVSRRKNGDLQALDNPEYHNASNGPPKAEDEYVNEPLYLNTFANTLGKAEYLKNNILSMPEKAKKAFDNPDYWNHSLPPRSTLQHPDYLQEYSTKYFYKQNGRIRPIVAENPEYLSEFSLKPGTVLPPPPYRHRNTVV
Homeodomain-interacting protein kinase 2, sequence (Q9H2X6 whole entry): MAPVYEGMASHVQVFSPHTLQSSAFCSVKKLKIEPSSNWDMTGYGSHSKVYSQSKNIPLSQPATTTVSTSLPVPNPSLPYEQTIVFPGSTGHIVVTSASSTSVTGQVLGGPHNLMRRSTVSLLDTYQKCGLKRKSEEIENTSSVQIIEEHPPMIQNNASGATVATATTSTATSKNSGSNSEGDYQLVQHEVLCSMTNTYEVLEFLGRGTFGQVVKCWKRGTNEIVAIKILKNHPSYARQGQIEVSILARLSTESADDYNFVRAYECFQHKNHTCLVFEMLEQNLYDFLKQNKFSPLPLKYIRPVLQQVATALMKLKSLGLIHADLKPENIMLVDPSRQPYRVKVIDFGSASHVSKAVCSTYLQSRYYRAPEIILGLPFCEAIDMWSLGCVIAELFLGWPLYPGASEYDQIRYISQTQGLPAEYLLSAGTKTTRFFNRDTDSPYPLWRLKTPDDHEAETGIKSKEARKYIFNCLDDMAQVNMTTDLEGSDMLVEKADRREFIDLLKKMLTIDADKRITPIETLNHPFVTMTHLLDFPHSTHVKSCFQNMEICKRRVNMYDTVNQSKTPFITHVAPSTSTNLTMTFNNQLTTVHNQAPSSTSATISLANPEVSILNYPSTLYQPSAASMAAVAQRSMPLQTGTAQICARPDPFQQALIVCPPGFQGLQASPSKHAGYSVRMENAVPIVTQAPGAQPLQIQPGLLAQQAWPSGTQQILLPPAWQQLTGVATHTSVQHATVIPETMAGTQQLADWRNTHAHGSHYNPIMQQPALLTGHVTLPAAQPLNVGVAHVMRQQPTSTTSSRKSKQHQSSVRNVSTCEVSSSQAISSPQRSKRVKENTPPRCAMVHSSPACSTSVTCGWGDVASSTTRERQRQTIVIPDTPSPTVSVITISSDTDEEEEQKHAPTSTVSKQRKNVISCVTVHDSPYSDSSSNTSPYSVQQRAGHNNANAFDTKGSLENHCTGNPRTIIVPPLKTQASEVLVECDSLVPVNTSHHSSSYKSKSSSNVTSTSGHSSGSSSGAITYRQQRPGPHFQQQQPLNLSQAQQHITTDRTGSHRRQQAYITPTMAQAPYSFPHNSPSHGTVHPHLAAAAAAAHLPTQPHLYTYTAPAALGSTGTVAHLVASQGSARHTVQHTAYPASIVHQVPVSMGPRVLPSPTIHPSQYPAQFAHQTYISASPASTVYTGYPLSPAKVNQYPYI
Glycogen synthase kinase-3 alpha, sequence (P49840 whole entry): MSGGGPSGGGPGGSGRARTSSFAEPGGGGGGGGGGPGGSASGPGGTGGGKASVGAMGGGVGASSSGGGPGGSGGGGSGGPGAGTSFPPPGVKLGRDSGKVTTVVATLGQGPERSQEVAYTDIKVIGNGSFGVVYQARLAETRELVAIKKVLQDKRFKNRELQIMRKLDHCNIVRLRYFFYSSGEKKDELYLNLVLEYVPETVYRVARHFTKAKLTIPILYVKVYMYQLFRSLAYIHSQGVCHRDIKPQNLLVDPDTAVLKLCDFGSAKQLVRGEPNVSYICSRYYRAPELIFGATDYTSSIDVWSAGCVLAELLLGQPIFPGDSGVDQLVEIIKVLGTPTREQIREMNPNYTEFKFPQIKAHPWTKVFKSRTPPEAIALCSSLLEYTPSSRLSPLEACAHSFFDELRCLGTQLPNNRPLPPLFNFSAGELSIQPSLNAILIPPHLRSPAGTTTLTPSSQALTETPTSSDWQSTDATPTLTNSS
Ribosomal protein S6 kinase beta-1, sequence (P23443 whole entry): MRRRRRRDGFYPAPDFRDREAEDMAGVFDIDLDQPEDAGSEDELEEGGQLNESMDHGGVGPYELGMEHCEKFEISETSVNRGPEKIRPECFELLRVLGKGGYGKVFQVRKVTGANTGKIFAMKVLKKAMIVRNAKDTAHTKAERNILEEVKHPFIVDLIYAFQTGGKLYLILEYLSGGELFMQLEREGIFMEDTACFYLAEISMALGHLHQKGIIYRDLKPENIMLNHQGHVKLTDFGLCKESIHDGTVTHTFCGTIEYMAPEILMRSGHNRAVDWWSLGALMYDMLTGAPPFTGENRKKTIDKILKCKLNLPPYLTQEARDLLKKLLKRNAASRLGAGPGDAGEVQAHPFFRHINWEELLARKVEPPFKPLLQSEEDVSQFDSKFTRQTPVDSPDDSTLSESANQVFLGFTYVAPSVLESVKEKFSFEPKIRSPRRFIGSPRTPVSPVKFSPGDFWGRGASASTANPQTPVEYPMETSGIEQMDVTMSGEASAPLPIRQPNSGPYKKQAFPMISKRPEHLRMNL

Nc1nc(NCC2CCCO2)nc(Nc2ccc(F)cc2)c1[N+](=O)[O-] (configuration not stated)
AC50 [1]: 0.802 µM (active)
AC50 [2]: 2.42 µM (active)

CCC1C(=O)N(C)c2cnc(Nc3ccc(C(=O)NC4CCN(C)CC4)cc3OC)nc2N1C1CCCC1 (configuration not stated)
Ki [3]: > 2 µM (inactive)
Ki [4]: > 6.31 µM (inactive)
Ki [5]: > 6.31 µM (inactive)
Ki [6]: 0.2 µM (active)
Ki [7]: 1.58 µM (active)
Ki [8]: > 3.16 µM (inactive)
Ki [9]: > 10 µM (inactive)
Ki [10]: > 6.31 µM (inactive)
Ki [11]: > 2 µM (inactive)
Ki [12]: > 3.16 µM (inactive)
Ki [13]: 0.631 µM (active)
Ki [14]: > 0.631 µM (inactive)
Ki [15]: > 5.01 µM (inactive)
Ki [16]: > 2.51 µM (inactive)
Ki [17]: > 2 µM (inactive)
Ki [18]: > 3.98 µM (inactive)
Ki [19]: > 6.31 µM (inactive)

Cc1cc(C)n2nc(N)c(/N=N/c3ccccc3)c2n1
CC50 [20]: > 100 µM (active)
CC50 [21]: > 100 µM (active)
CC50 [22]: 83.7 µM (active)
CC50 [23]: > 99.5 µM (active)
CC50 [24]: > 50 µM (active)
CC50 [25]: > 50 µM (active)
CC50 [26]: > 100 µM (active)
CC50 [27]: 93 µM (active)
